Counter-ions that a name gives are not always drawn. Like-named read-outs stand apart in the source and are kept apart here.
How the values were obtained:
EV71(SZ98) = experiment: CPE assay; assay type: cell-based, Human enterovirus 71; settings: for IC50: Enterovirus A, EV71, CPE; for SI: TC50/IC50
CVB1 (strain Conn-5) = experiment: CPE assay; assay type: cell-based, Coxsackie virus B; settings: for IC50: Enterovirus B, CVB1, CPE
[1] = In vivo toxicity, body weight in mice; parameters: species or system female Kun Ming mice; settings: 100 mg/kg by oral administration in mice
Method: To determine the in vivo toxicity of N30 preliminarily, female Kun Ming mice were gavaged 100 mg/kg and 50 mg/kg N30 twice a day. Six mice enrolled in each group were gavaged with N30 or vehicle for continuous administration for 14 days, then weighted at day 0, 5, 10 and 14 respectively, shown in Table 5.

viral hemagglutinin = system: viral hemagglutinin; parameters: species or system Influenza A virus; settings: maximum concentration 40 μM, 10-fold dilutions; Fig. 2b
Method: Briefly, the diluted IAV were mixed with diluted compounds in a U bottom 96-well plate. After incubation at 4 °C for 40 min, equal volume of 1.2% chicken erythrocyte suspension was added to each well. Then, the erythrocyte aggregation was evaluated by visual inspection after 40 min [17, 18].

IMPDH type II [2] = molecular target: T1, IMPDH type II (Homo sapiens, UniProt P12268); experiment: Enzymatic assay of IMPDH type II; assay type: biochemical; settings: after N30 treatment; Fig. 3b
T1 construct: purchased Sigma-Aldrich
Method: The enzymatic assay was employed to evaluate the inhibitory effect of N30 on the activity of IMPDH type II by following the increase in formation of nicotinamide-adenine dinucleotide (NADH), which absorbance was read at 340 nm on Enspire at 30 °C. The 200 μL assay buffer contained 1 M Tris/HCl (pH 8.8), 1 M KCl, 30 mM EDTA, 10 μL IMPDH type II (Sigma-Aldrich), 1 mM DTT and NAD (Sigma-Aldrich). The reaction was started after addition of IMP, with final concentrations was 1 mM [19].

MDCK cells = settings: dog, 48 h
Vero cells [3] = settings: African green monkey, 48 h
BY/fujianxinluo/54/2006 = experiment: CPE assay in MDCK cells; assay type: cell-based, influenza B virus; settings: for IC50: Influenza B virus, CPE, MDCK cells; for SI: TC50/IC50
CVB3 (strain Nancy) = experiment: CPE assay; assay type: cell-based, Coxsackie virus B; settings: for IC50: Enterovirus B, CVB3, CPE
A/wuhan/359/1995 = experiment: CPE assay in MDCK cells; assay type: cell-based, Influenza A virus (H3N2); settings: for IC50: Influenza A virus, CPE, MDCK cells; for SI: TC50/IC50
RSV = assay type: cell-based, respiratory syncytial virus (long strain)
NA of IAV A/FM1/1947 = experiment: NA inhibition assay (MUNANA); assay type: biochemical, Influenza A virus; settings: Fig. 2a
A/FortMonmouth/1/1947 = experiment: CPE assay in MDCK cells; assay type: cell-based, Influenza A virus (H1N1); settings: for IC50: Influenza A virus, CPE, MDCK cells; for SI: TC50/IC50
[4] = system: IAV A/Fort Monmouth/1/1947 (H1N1); experiment: IAV M2 protein and RNA expression in MDCK cells (western blot, qRT-PCR); assay type: cell-based, Influenza A virus (H1N1); settings: 0.01 MOI, 24 h post-infection, Fig. 1c and d
Method: Fig. 1 Effects of N30 on IAV M2 protein and RNA expression in MDCK. a Chemical structure of N30. b The effect of N30 on viabilities of MRC-5, Vero, MDCK and Hep2 cells, which were measured by CCK. c The effect of N30 with different concentrations on IAV M2 protein and RNA expression. d The effect of N30 on IAV M2 protein and RNA expression compared with reference drugs. MDCK cells were infected with IAV A/Fort Monmouth/1/1947(H1N1) (0.01 multiplicity of infection [MOI, plaque-forming units (PFU)/cell]) for 2 hours, and treated with different concentrations of N30 or reference drugs for 24 h. Total mRNA and protein were extracted at 24 h post-infection, and analyzed by qRT-PCR and Western blotting respectively. […]
Cells were collected at 24 h post-infection and lysed in M-PER mammalian protein extraction reagent containing halt protease inhibitor cocktail (Thermo Fisher Scientific), sample proteins were subjected to SDS-PAGE and transferred to PVDF membrane (Millipore). After blocked with 5% milk, the membranes were incubated with antibodies against Influenza M2, β-actin (Santa Cruz), CVB3 VP1 (Millipore), IMPDH type II (Sigma-Aldrich), RSV M2 (Santa Cruz) and coronavirus (FIPV-70, Santa Cruz) respectively, then, the HRP-conjugated secondary antibodies were incubated and the signals were detected using an enhanced chemiluminescence (ECL) kit (GE Healthcare Life Sciences). […]

IAV = settings: in vitro, at low micromolar concentrations; cited from earlier work
CVB2 (strain Ohio-1) = experiment: CPE assay; assay type: cell-based, Coxsackie virus B; settings: for IC50: Enterovirus B, CVB2, Ohio-1, CPE
CVB6 (strain Schmitt) = experiment: CPE assay; assay type: cell-based, Coxsackie virus B; settings: for IC50: CPE
CVB4 (strain J.V.B.) = experiment: CPE assay; assay type: cell-based, Coxsackie virus B; settings: for IC50: Enterovirus B, CVB4, CPE
CVB5 (strain Faulkner) = experiment: CPE assay; assay type: cell-based, Coxsackie virus B; settings: for IC50: Enterovirus B, CVB5, CPE
IMPDH type II [5] = experiment: IMPDH type II expression by western blot in MDCK cells; assay type: cell-based, canine; settings: 24 h treatment, Fig. 3a
EV71(BrCr) = experiment: CPE assay; assay type: cell-based, Human enterovirus 71; settings: for IC50: Enterovirus A, EV71, CPE; for SI: TC50/IC50
BV/shenzhen/155/2005 = experiment: CPE assay in MDCK cells; assay type: cell-based, influenza B virus; settings: for IC50: Influenza B virus, CPE, MDCK cells; for SI: TC50/IC50
[6] = human, in vivo, cited from earlier work
Vero cells [7] = experiment: Cytotoxicity test (CCK); settings: 50% toxicity concentration
[8] = in vivo; cited from earlier work

O=[N+]([O-])c1ccc(CNc2ccc3ncsc3c2)cc1 [N30, N-(4-nitrophenylmethyl) benzothiazole-6-amine]
IC50 (EV71(SZ98)): 10.6 ± 3.76 µM | SI (EV71(SZ98)): 8.42 | IC50 (CVB1 (strain Conn-5)): 6.28 ± 1.61 µM | SI (CVB1 (strain Conn-5); TC50/IC50): 14.26 | acute toxicity [1]: little acute toxicity | hemagglutination inhibition (aggregation of chicken erythrocytes) (viral hemagglutinin): could not inhibit the aggregation of chicken erythrocytes | reduction of the enzymatic reaction rate of IMPDH (IMPDH type II [2]): 38.18% | TC50 (MDCK cells): 66.67 µM | TC50 (Vero cells [3]): 89.56 ± 4.25 µM | IC50 (BY/fujianxinluo/54/2006): 0.7 ± 0.18 µM | SI (BY/fujianxinluo/54/2006): 95.24 | IC50 (CVB3 (strain Nancy)): 1.82 ± 2.76 µM | SI (CVB3 (strain Nancy); TC50/IC50): 49.21 | IC50 (A/wuhan/359/1995): 1.31 ± 0.87 µM | SI (A/wuhan/359/1995): 50.89 | expression of the viral proteins (RSV; 10 μM N30, RSV-infected Hep2 cells): almost completely inhibit | RSV M2 mRNA and protein expressions (RSV; RSV-infected Hep2 cells, 0.025 MOI, 24 h, Fig. 4b): markedly decreased | effect on NA activity (NA of IAV A/FM1/1947): little inhibitory effect | IC50 (A/FortMonmouth/1/1947): 1.93 ± 0.16 µM | SI (A/FortMonmouth/1/1947): 34.54 | amounts of IAV M2 protein and RNA [4]: dosage dependent relationship | activity towards IAV (IAV): potent activity | IC50 (CVB2 (strain Ohio-1)): 11.7 ± 2.94 µM | SI (CVB2 (strain Ohio-1); TC50/IC50): 7.69 | SI (CVB6 (strain Schmitt)): 13.15 | IC50 (CVB6 (strain Schmitt)): 6.81 ± 1.89 µM | IC50 (CVB4 (strain J.V.B.)): 10.4 ± 3.13 µM | SI (CVB4 (strain J.V.B.); TC50/IC50): 8.64 | IC50 (CVB5 (strain Faulkner)): 2.54 ± 1.43 µM | SI (CVB5 (strain Faulkner); TC50/IC50): 35.26 | IMPDH expression (IMPDH type II [5]): have not been lessened | IC50 (EV71(BrCr)): 8.04 ± 3.77 µM | SI (EV71(BrCr)): 11.14 | IC50 (BV/shenzhen/155/2005): 1.16 ± 0.69 µM | SI (BV/shenzhen/155/2005): 57.47

NC(=O)c1ncn([C@@H]2O[C@H](CO)[C@@H](O)[C@H]2O)n1 [RBV, Ribavirin]
IC50 (CVB1 (strain Conn-5)): 2370 ± 360 µM | hemagglutination inhibition (aggregation of chicken erythrocytes) (viral hemagglutinin): did not show the inhibitory effect | IC50 (BY/fujianxinluo/54/2006): 2.48 ± 0.53 µM | IC50 (CVB3 (strain Nancy)): 3130 ± 1210 µM | IC50 (A/wuhan/359/1995): 8.23 ± 6.31 µM | IC50 (A/FortMonmouth/1/1947): 1.64 ± 0.72 µM | IC50 (CVB2 (strain Ohio-1)): 2270 ± 180 µM | IC50 (CVB6 (strain Schmitt)): 4560 ± 2410 µM | bilirubin values ([6]; po): elevated the bilirubin values | anemia [6]: transient anemia | TC50 (Vero cells [7]; Table 3): >20000 µM | IC50 (CVB4 (strain J.V.B.)): 2470 ± 1600 µM | IC50 (CVB5 (strain Faulkner)): 1200 ± 530 µM | IMPDH expression (IMPDH type II [5]): no inhibition | IC50 (BV/shenzhen/155/2005): 1.7 ± 0.57 µM

NC12CC3CC(CC(C3)C1)C2 [AH, amantadine hydrochloride]
IC50 (BY/fujianxinluo/54/2006): > 200 µM | IC50 (A/wuhan/359/1995): 15.6 ± 0.31 µM | IC50 (A/FortMonmouth/1/1947): 0.65 ± 0.59 µM | IC50 (BV/shenzhen/155/2005): > 200 µM

CCOC(=O)c1ccc(OCCC2CCN(c3ccc(C)nn3)CC2)cc1 [Pirodavir]
IC50 (EV71(SZ98)): 0.27 ± 0.27 µM | SI (EV71(SZ98)): 120.6 | TC50 (Vero cells [7]; Tables 3 and 4, CCK, 48 h): 32.57 ± 0.55 µM | IC50 (EV71(BrCr)): 0.16 µM | SI (EV71(BrCr)): 203.56

CCC(CC)O[C@@H]1C=C(C(=O)O)C[C@H](N)[C@H]1NC(C)=O [OC, oseltamivir carboxylate]
hemagglutination inhibition (aggregation of chicken erythrocytes) (viral hemagglutinin): did not show the inhibitory effect | TC50 (MDCK cells): > 50 µM | IC50 (BY/fujianxinluo/54/2006): 0.56 ± 0.02 µM | SI (BY/fujianxinluo/54/2006): >89.28 | IC50 (A/wuhan/359/1995): 0.12 ± 0.01 µM | SI (A/wuhan/359/1995): >416.67 | effect on NA activity (NA of IAV A/FM1/1947): significantly reduce the activity of NA in a dose dependent manner | IC50 (A/FortMonmouth/1/1947): 0.25 ± 0.01 µM | SI (A/FortMonmouth/1/1947): >200 | IC50 (BV/shenzhen/155/2005): 1.02 ± 0.08 µM | SI (BV/shenzhen/155/2005): >49.02

COc1c(C)c2c(c(O)c1C/C=C(\C)CCC(=O)OCCN1CCOCC1)C(=O)OC2 [MMF, mycophenolate mofetil]
side effects [8]: diarrhea, leucopenia, sepsis, and vomiting
